In patent US20240100170A1, “CYCLIC-AMP RESPONSE ELEMENT BINDING PROTEIN (CBP) AND/OR ADENOVIRAL E1A BINDING PROTEIN OF 300 KDA (P300) DEGRADATION COMPOUNDS AND METHODS OF USE” (CULLGEN (SHANGHAI), INC., priority 2020, published 2024):
pIC50: −log10 of the molar value.

Experiments:
[1] = tested on: LNCaP prostate cancer cell; assay: LNCaP cell viability (CellTiter-Glo); assay type: cell-based; conditions: Homo sapiens, 72 h; LNCaP cell viability, 3 days, CellTiter-Glo; Table 4
How it was run: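 LNCaP cells (5000/well, RPMI 1640 + 10% FBS, 37 °C) treated with compounds in 12-point 3-fold serial dilution for three days. Viability read by CellTiter-Glo luminescence, normalized to untreated cells; IC50 from least-squares nonlinear regression.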

P300 = P300 (Homo sapiens, UniProt Q09472); assay: percentage of inhibition (degradation) of p300 at 10 nM, Tables 2-4; assay type: cell-based; design: LNCaP or 22RV1 cells that express CBP/P300 proteins were treated with GNE-781 or the bivalent compounds; endogenous in cells; host or cells: LNCaP or 22RV1 (not given); conditions: p300, 10 nM; Table 4; read-out: Degradation (10 nM)
Sequence of P300 (Q09472 whole entry): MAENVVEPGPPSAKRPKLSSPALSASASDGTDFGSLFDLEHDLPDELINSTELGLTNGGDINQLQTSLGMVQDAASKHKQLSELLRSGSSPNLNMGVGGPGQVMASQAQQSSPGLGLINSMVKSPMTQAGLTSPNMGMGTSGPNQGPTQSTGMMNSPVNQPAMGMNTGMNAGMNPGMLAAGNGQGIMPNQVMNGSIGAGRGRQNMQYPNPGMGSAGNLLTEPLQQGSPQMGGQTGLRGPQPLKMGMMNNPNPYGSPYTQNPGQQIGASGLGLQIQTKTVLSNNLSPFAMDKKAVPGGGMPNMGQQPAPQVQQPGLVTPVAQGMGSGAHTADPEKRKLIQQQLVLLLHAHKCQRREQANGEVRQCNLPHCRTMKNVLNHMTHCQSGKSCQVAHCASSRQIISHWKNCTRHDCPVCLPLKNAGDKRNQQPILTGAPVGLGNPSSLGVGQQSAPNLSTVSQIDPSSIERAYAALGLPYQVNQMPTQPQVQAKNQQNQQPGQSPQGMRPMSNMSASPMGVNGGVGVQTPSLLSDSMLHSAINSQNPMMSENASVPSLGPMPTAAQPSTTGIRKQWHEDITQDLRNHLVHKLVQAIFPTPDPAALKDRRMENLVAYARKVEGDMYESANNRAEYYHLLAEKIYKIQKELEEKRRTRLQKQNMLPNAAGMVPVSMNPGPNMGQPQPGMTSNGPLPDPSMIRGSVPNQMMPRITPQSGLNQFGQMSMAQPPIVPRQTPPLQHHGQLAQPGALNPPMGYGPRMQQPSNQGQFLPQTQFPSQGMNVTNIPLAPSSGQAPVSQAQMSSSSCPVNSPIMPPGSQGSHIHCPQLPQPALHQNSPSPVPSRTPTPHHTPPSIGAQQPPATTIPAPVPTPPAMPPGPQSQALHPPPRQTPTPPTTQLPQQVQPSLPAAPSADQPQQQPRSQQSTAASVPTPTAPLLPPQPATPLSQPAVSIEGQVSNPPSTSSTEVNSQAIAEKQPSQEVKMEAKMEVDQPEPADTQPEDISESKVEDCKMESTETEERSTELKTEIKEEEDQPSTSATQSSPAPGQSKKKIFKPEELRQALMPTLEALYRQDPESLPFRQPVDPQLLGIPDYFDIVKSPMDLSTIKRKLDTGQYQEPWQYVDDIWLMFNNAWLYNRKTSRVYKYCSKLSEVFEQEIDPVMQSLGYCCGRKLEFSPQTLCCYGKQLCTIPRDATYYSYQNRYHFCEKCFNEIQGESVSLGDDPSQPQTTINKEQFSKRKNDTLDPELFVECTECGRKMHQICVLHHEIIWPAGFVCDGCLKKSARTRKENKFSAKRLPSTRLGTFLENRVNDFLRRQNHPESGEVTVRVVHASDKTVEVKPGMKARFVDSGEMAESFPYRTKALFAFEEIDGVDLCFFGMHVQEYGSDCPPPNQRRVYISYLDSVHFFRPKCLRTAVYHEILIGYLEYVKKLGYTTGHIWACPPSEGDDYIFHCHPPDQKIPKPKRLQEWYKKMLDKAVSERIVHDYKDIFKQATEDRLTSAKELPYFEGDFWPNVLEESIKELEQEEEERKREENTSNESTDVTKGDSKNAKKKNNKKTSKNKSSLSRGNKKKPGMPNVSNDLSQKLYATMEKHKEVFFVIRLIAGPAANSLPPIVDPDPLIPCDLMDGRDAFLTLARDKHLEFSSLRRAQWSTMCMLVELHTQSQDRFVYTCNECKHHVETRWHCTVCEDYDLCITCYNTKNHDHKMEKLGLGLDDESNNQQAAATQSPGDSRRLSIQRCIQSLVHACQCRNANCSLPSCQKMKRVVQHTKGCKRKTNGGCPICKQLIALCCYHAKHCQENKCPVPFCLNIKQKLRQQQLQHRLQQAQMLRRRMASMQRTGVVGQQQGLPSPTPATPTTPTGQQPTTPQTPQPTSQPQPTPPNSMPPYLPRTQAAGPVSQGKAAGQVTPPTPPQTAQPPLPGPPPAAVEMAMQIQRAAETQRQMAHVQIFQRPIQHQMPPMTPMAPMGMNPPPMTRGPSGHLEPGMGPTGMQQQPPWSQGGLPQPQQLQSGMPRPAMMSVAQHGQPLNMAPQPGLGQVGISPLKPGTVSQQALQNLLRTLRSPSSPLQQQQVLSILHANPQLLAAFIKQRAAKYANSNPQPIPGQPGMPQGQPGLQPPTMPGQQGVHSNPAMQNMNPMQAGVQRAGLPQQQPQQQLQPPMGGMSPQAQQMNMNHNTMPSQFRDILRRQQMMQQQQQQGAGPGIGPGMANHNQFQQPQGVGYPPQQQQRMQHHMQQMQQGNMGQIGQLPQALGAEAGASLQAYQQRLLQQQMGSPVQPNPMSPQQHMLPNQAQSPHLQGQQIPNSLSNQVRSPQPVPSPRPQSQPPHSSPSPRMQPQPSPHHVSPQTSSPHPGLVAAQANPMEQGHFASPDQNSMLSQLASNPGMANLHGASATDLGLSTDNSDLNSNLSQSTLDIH
How it was run: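 Degradation was measured at 10 nM. Cells or tissue were lysed in RIPA with protease and phosphatase inhibitors for 30 min at 4 °C and cleared, and protein was quantified by BCA. Lysates were resolved by SDS-PAGE, detected by chemiluminescent immunoblot, and bands were quantified by densitometry.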

Row | Compound | pIC50 [1] | inhibition at 0.01 µM (P300) [%]
1 | CC(=O)N1CCc2c(c(N3CCCc4cc(-c5cnn(C)c5)c(C(F)F)cc43)nn2C2CCN(C(=O)CCN3CCC(C#Cc4ccc5c(c4)n(C)c(=O)n5C4CCC(=O)NC4=O)CC3)CC2)C1 (stereo not shown) [P-212, 3-(5-((1-(3-(4-(5-acetyl-3-(7-(difluoromethyl)-6-(1-methyl-1H-pyrazol-4-yl)-3,4-dihydroquinolin-1(2H)-yl)-4,5,6,7-tetrahydro-1H-pyrazolo[4,3-c]pyridin-1-yl)piperidin-1-yl)-3-oxopropyl)piperidin-4-yl)ethynyl)-3-methyl-2-oxo-2,3-dihydro-1H-benzo[d]imidazol-1-yl)piperidine-2,6-dione] | 8.26 | > 80
2 | CC(=O)N1CCc2c(c(N3CCCc4cc(-c5cnn(C)c5)c(C(F)F)cc43)nn2C2CCN(CCCN3CCC(CNc4cccc5c4C(=O)N(C4CCC(=O)NC4=O)C5=O)CC3)CC2)C1 (stereo not shown) [P-193, 4-(((1-(3-(4-(5-acetyl-3-(7-(difluoromethyl)-6-(1-methyl-1H-pyrazol-4-yl)-3,4-dihydroquinolin-1(2H)-yl)-4,5,6,7-tetrahydro-1H-pyrazolo[4,3-c]pyridin-1-yl)piperidin-1-yl)propyl)piperidin-4-yl)methyl)amino)-2-(2,6-dioxopiperidin-3-yl)isoindoline-1,3-dione] | 8.49 | > 80
3 | CC(=O)N1CCc2c(c(N3CCCc4cc(-c5cnn(C)c5)c(C(F)F)cc43)nn2C2CCN(C(=O)CCN3CCN(Cc4cccc5c4n(C)c(=O)n5C4CCC(=O)NC4=O)CC3)CC2)C1 (stereo not shown) [P-208, 3-(4-((4-(3-(4-(5-Acetyl-3-(7-(difluoromethyl)-6-(1-methyl-1H-pyrazol-4-yl)-3,4-dihydroquinolin-1(2H)-yl)-4,5,6,7-tetrahydro-1H-pyrazolo[4,3-c]pyridin-1-yl)piperidin-1-yl)-3-oxopropyl)piperazin-1-yl)methyl)-3-methyl-2-oxo-2,3-dihydro-1H-benzo[d]imidazol-1-yl)piperidine-2,6-dione] | 7.71 | > 80
4 | CC(=O)N1CCc2c(c(N3CCCc4cc(-c5cnn(C)c5)c(C(F)F)cc43)nn2C2CCN(C(=O)CN3CCN(CCCc4ccc5c(c4)n(C)c(=O)n5C4CCC(=O)NC4=O)CC3)CC2)C1 (stereo not shown) [P-220, 3-(5-(3-(4-(2-(4-(5-Acetyl-3-(7-(difluoromethyl)-6-(1-methyl-1H-pyrazol-4-yl)-3,4-dihydroquinolin-1(2H)-yl)-4,5,6,7-tetrahydro-1H-pyrazolo[4,3-c]pyridin-1-yl)piperidin-1-yl)-2-oxoethyl)piperazin-1-yl)propyl)-3-methyl-2-oxo-2,3-dihydro-1H-benzo[d]imidazol-1-yl)piperidine-2,6-dione] | 7.81 | 50 to 80
5 | CC(=O)N1CCc2c(c(N3CCCc4cc(-c5cnn(C)c5)c(C(F)F)cc43)nn2C2CCN(C(=O)CCCN3CCC(CNc4ccc5c(c4)n(C)c(=O)n5C4CCC(=O)NC4=O)CC3)CC2)C1 (stereo not shown) [P-217, 3-(5-(((1-(4-(4-(5-Acetyl-3-(7-(difluoromethyl)-6-(1-methyl-1H-pyrazol-4-yl)-3,4-dihydroquinolin-1(2H)-yl)-4,5,6,7-tetrahydro-1H-pyrazolo[4,3-c]pyridin-1-yl)piperidin-1-yl)-4-oxobutyl)piperidin-4-yl)methyl)amino)-3-methyl-2-oxo-2,3-dihydro-1H-benzo[d]imidazol-1-yl)piperidine-2,6-dione] | 7.67 | 50 to 80
6 | CC(=O)N1CCc2c(c(N3CCCc4cc(-c5cnn(C)c5)c(C(F)F)cc43)nn2C2CCN(CCCN3CCC(CCc4cccc5c4C(=O)N(C4CCC(=O)NC4=O)C5=O)CC3)CC2)C1 (stereo not shown) [P-190, 4-(2-(1-(3-(4-(5-acetyl-3-(7-(difluoromethyl)-6-(1-methyl-1H-pyrazol-4-yl)-3,4-dihydroquinolin-1(2H)-yl)-4,5,6,7-tetrahydro-1H-pyrazolo[4,3-c]pyridin-1-yl)piperidin-1-yl)propyl)piperidin-4-yl)ethyl)-2-(2,6-dioxopiperidin-3-yl)isoindoline-1,3-dione] | 7.38 | 50 to 80
7 | CC(=O)N1CCc2c(c(N3CCCc4cc(-c5cnn(C)c5)c(C(F)F)cc43)nn2C2CCN(C(=O)CN3CCN(CC#Cc4ccc5c(c4)n(C)c(=O)n5C4CCC(=O)NC4=O)CC3)CC2)C1 (stereo not shown) [P-219, 3-(5-(3-(4-(2-(4-(5-Acetyl-3-(7-(difluoromethyl)-6-(1-methyl-1H-pyrazol-4-yl)-3,4-dihydroquinolin-1(2H)-yl)-4,5,6,7-tetrahydro-1H-pyrazolo[4,3-c]pyridin-1-yl)piperidin-1-yl)-2-oxoethyl)piperazin-1-yl)prop-1-yn-1-yl)-3-methyl-2-oxo-2,3-dihydro-1H-benzo[d]imidazol-1-yl)piperidine-2,6-dione] | 7.19 | 20 to 50

Second part, the compound after the results:

Row | pIC50 [1] | inhibition at 0.01 µM (P300) [%] | Compound
8 | 6.51 | 20 to 50 | CC(=O)N1CCc2c(c(N3CCCc4cc(-c5cnn(C)c5)c(C(F)F)cc43)nn2C2CCN(C(=O)CN3CCN(CCCc4cccc5c4n(C)c(=O)n5C4CCC(=O)NC4=O)CC3)CC2)C1 (stereo not shown) [P-237, 3-(4-(3-(4-(2-(4-(5-Acetyl-3-(7-(difluoromethyl)-6-(1-methyl-1H-pyrazol-4-yl)-3,4-dihydroquinolin-1(2H)-yl)-4,5,6,7-tetrahydro-1H-pyrazolo[4,3-c]pyridin-1-yl)piperidin-1-yl)-2-oxoethyl)piperazin-1-yl)propyl)-3-methyl-2-oxo-2,3-dihydro-1H-benzo[d]imidazol-1-yl)piperidine-2,6-dione]
9 | 9.52 | > 80 | CC(=O)N1CCc2c(c(N3CCCc4cc(-c5cnn(C)c5)c(C(F)F)cc43)nn2C2CCN(CCCN3CCC(C#Cc4cccc5c4n(C)c(=O)n5C4CCC(=O)NC4=O)CC3)CC2)C1 (stereo not shown) [P-250, 3-(4-((1-(3-(4-(5-acetyl-3-(7-(difluoromethyl)-6-(1-methyl-1H-pyrazol-4-yl)-3,4-dihydroquinolin-1(2H)-yl)-4,5,6,7-tetrahydro-1H-pyrazolo[4,3-c]pyridin-1-yl)piperidin-1-yl)propyl)piperidin-4-yl)ethynyl)-3-methyl-2-oxo-2,3-dihydro-1H-benzo[d]imidazol-1-yl)piperidine-2,6-dione]
10 | 8.85 | > 80 | CC(=O)N1CCc2c(c(N3CCCc4cc(-c5cnn(C)c5)c(C(F)F)cc43)nn2C2CCN(C(=O)CCCN3CCC(CCc4ccc5c(c4)n(C)c(=O)n5C4CCC(=O)NC4=O)CC3)CC2)C1 (stereo not shown) [P-222, 3-(5-(2-(1-(4-(4-(5-acetyl-3-(7-(difluoromethyl)-6-(1-methyl-1H-pyrazol-4-yl)-3,4-dihydroquinolin-1(2H)-yl)-4,5,6,7-tetrahydro-1H-pyrazolo[4,3-c]pyridin-1-yl)piperidin-1-yl)-4-oxobutyl)piperidin-4-yl)ethyl)-3-methyl-2-oxo-2,3-dihydro-1H-benzo[d]imidazol-1-yl)piperidine-2,6-dione]
11 | 8.74 | > 80 | CC(=O)N1CCc2c(c(N3CCCc4cc(-c5cnn(C)c5)c(C(F)F)cc43)nn2C2CCN(C(=O)CN3CCC(C#Cc4cccc5c4n(C)c(=O)n5C4CCC(=O)NC4=O)CC3)CC2)C1 (stereo not shown) [P-227, 3-(4-((1-(2-(4-(5-acetyl-3-(7-(difluoromethyl)-6-(1-methyl-1H-pyrazol-4-yl)-3,4-dihydroquinolin-1(2H)-yl)-4,5,6,7-tetrahydro-1H-pyrazolo[4,3-c]pyridin-1-yl)piperidin-1-yl)-2-oxoethyl)piperidin-4-yl)ethynyl)-3-methyl-2-oxo-2,3-dihydro-1H-benzo[d]imidazol-1-yl)piperidine-2,6-dione]
12 | 8.17 | > 80 | CC(=O)N1CCc2c(c(N3CCCc4cc(-c5cnn(C)c5)c(C(F)F)cc43)nn2C2CCN(C(=O)CCN3CCN(CCCc4ccc5c(c4)n(C)c(=O)n5C4CCC(=O)NC4=O)CC3)CC2)C1 (stereo not shown) [P-234, 3-(5-(3-(4-(3-(4-(5-acetyl-3-(7-(difluoromethyl)-6-(1-methyl-1H-pyrazol-4-yl)-3,4-dihydroquinolin-1(2H)-yl)-4,5,6,7-tetrahydro-1H-pyrazolo[4,3-c]pyridin-1-yl)piperidin-1-yl)-3-oxopropyl)piperazin-1-yl)propyl)-3-methyl-2-oxo-2,3-dihydro-1H-benzo[d]imidazol-1-yl)piperidine-2,6-dione]
13 | 6.23 | < 20 | CC(=O)N1CCc2c(c(N3CCCc4cc(-c5cnn(C)c5)c(C(F)F)cc43)nn2C2CCN(C(=O)CCCCCCCCCC(=O)Nc3cccc(NC4CCC(=O)NC4=O)c3)CC2)C1 (stereo not shown) [P-265, 11-(4-(5-Acetyl-3-(7-(difluoromethyl)-6-(1-methyl-1H-pyrazol-4-yl)-3,4-dihydroquinolin-1(2H)-yl)-4,5,6,7-tetrahydro-1H-pyrazolo[4,3-c]pyridin-1-yl)piperidin-1-yl)-N-(3-((2,6-dioxopiperidin-3-yl)amino)phenyl)-11-oxoundecanamide]
14 | 9.10 | > 80 | CC(=O)N1CCc2c(c(N3CCCc4cc(-c5cnn(C)c5)c(C(F)F)cc43)nn2C2CCN(CCCN3CCC(CCc4ccc5c(c4)n(C)c(=O)n5C4CCC(=O)NC4=O)CC3)CC2)C1 (stereo not shown) [P-244, 3-(5-(2-(1-(3-(4-(5-acetyl-3-(7-(difluoromethyl)-6-(1-methyl-1H-pyrazol-4-yl)-3,4-dihydroquinolin-1(2H)-yl)-4,5,6,7-tetrahydro-1H-pyrazolo[4,3-c]pyridin-1-yl)piperidin-1-yl)propyl)piperidin-4-yl)ethyl)-3-methyl-2-oxo-2,3-dihydro-1H-benzo[d]imidazol-1-yl)piperidine-2,6-dione]
